Values quoted from earlier work in patent publication US20070269478A1, “METHOD OF PREPARING ACELLULARIZED, BIOCOMPATIBLE, IMPLANTABLE MATERIAL” (priority 2006, published 2007).

Key:
[1] = for pK5: primary amine basicity, glycine vs. metilamine; for pK2: amino group, glutamic acid vs. γ-aminobutyric
[2] = α-amino acids with acidic side chains

pH above which there is an excess of negative charge [2]	pK2 [1]	SMILES	pK5 [1]
~2.2	–	N[C@@H](CCS(=O)(=O)O)C(=O)O [homocysteic acid]	–
~4.2	9.76	N[C@@H](CCC(=O)O)C(=O)O [glutamic acid]	–

More lines, now with the values behind:

SMILES	pH above which there is an excess of negative charge [2]	pK2 [1]	pK5 [1]
CN [metilamine]	–	–	10.65
NCCCC(=O)O [γ-aminobutyric, 4-aminobutanoic acid]	–	10.56	–
NCC(=O)O [glycine]	–	–	9.60
